Laboratory results: patent US5099015A, “Trifluoromethyl 1-carba(1-dethia)cephems” (Eli Lilly and Company, priority 1991, dated 1992)
Converted amounts (≈) assume the structure as drawn. Read-outs that look alike come from different tables or passages of the source.

Experiments:
Experiment in all cases: Agar dilution antibacterial test (MIC)
Assay type in all cases: cell-based
Acom AC12 = test system: Acom AC12
Experimental: (§1) Fresh overnight cultures of test bacteria were diluted to approximately 1x(10)4 cells/microliter and applied in one microliter volumes to the surfaces of the agar plates. The innoculated plates were incubated overnight at 35° C. in ambient air. Minimum inhibitory concentration (mic) endpoints were recorded as the lowest antibiotic concentrations in micrograms per milliliter that inhibited the development of visible growth on the plates. The following summarizes the results of such tests with the compounds of the examples listed above.

Citro CF17 = test system: Citro CF17
Experimental: as §1

[1] = test system: Enterobacter aerogenes C32
Experimental: as §1

[2] = test system: Enterobacter aerogenes EB17
Experimental: as §1

[3] = test system: Enterobacter cloacae 265A
Experimental: as §1

Enterobacter cloacae EB5 = test system: Enterobacter cloacae EB5
Experimental: as §1

[4] = test system: Enterococcus faecalis 2041
Experimental: as §1

Enterococcus faecium X66 = test system: Enterococcus faecium X66
Experimental: as §1

Escherichia coli EC14 = test system: Escherichia coli EC14
Experimental: as §1

Escherichia coli N10 = test system: Escherichia coli N10
Experimental: as §1

Escherichia coli TEM = test system: Escherichia coli TEM
Experimental: as §1

[5] = test system: Haemophilus influenzae C.L.
Experimental: as §1

[6] = test system: Klebsiella pneumoniae KAE
Experimental: as §1

[7] = test system: Klebsiella pneumoniae X68
Experimental: as §1

Morg morg PR15 = test system: Morg morg PR15
Experimental: as §1

Proteus incon PR33 = test system: Proteus incon PR33
Experimental: as §1

Proteus rett C24 = test system: Proteus rett C24
Experimental: as §1

Salmonella 1335 = test system: Salmonella 1335
Experimental: as §1

Salmonella X514 = test system: Salmonella X514
Experimental: as §1

Serratia SE3 = test system: Serratia SE3
Experimental: as §1

Serratia X99 = test system: Serratia X99
Experimental: as §1

Shig sonn. N9 = test system: Shig sonn. N9
Experimental: as §1

[8] = test system: Staphylococcus aureus NRRL X1.1
Experimental: as §1

[9] = test system: Staphylococcus aureus S13E
Experimental: as §1

[10] = test system: Staphylococcus aureus V41
Experimental: as §1

[11] = test system: Staphylococcus aureus X400
Experimental: as §1

[12] = test system: Staphylococcus epidermidis 222
Experimental: as §1

[13] = test system: Staphylococcus epidermidis EPI270
Experimental: as §1

[14] = test system: Haemophilus influenzae 76; settings: read-out: MIC
Experimental: as §1

[15] = test system: Klebsiella pneumoniae X26; settings: read-out: MIC
Experimental: as §1

[16] = test system: Staphylococcus pneumoniae Park 1; settings: PARK1, read-out: MIC
Experimental: as §1

[17] = test system: Staphylococcus pyogenes C203; settings: read-out: MIC
Experimental: as §1

[18] = Klebsiella aerogenes, read-out: MIC

CON=C(C(=O)N[C@@H]1C(=O)N2C(C(=O)O)=C(C(F)(F)F)CC[C@H]12)c1csc(N)n1 [Compound 4, [7S,6R]-7-([2-Amino-4-thiazolyl(methoxyimino)acetyl]amido)-3-trifluoromethyl-1-carba(b 1-dethia)-3-cephem-4-carboxylic acid]
MIC (Acom AC12): 16 mg/L (≈ 36.9 µM) | MIC (Citro CF17): 8 mg/L (≈ 18.5 µM) | MIC [1]: .25 mg/L (≈ 0.577 µM) | MIC [2]: .125 mg/L (≈ 0.288 µM) | MIC [3]: 64 mg/L (≈ 148 µM) | MIC (Enterobacter cloacae EB5): .25 mg/L (≈ 0.577 µM) | MIC [4]: 1 mg/L (≈ 2.31 µM) | MIC (Enterococcus faecium X66): > 128 mg/L | MIC (Escherichia coli EC14): .03 mg/L (≈ 0.0692 µM) | MIC (Escherichia coli N10): .06 mg/L (≈ 0.138 µM) | MIC (Escherichia coli TEM): .125 mg/L (≈ 0.288 µM) | MIC [5]: .015 mg/L (≈ 0.0346 µM) | MIC [6]: 32 mg/L (≈ 73.8 µM) | MIC [7]: .015 mg/L (≈ 0.0346 µM) | MIC (Morg morg PR15): 4 mg/L (≈ 9.23 µM) | MIC (Proteus incon PR33): .125 mg/L (≈ 0.288 µM) | MIC (Proteus rett C24; Proteus rett C24): 1 mg/L (≈ 2.31 µM) | MIC (Salmonella 1335): .06 mg/L (≈ 0.138 µM) | MIC (Salmonella X514): .015 mg/L (≈ 0.0346 µM) | MIC (Serratia SE3): 2 mg/L (≈ 4.62 µM) | MIC (Serratia X99): .5 mg/L (≈ 1.15 µM) | MIC (Shig sonn. N9): .06 mg/L (≈ 0.138 µM) | MIC [8]: 4 mg/L (≈ 9.23 µM) | MIC [9]: 16 mg/L (≈ 36.9 µM) | MIC [10]: 8 mg/L (≈ 18.5 µM) | MIC [11]: 128 mg/L (≈ 295 µM) | MIC [12]: 4 mg/L (≈ 9.23 µM) | MIC [13]: 8 mg/L (≈ 18.5 µM)

N[C@@H](C(=O)N[C@@H]1C(=O)N2C(C(=O)O)=C(C(F)(F)F)CC[C@H]12)c1cccc(Br)c1 [Compound 7]
MIC (Citro CF17; read-out: MIC): 32 mg/L (≈ 69.2 µM) | MIC [1, 18]: 16 mg/L (≈ 34.6 µM) | MIC [2, 18]: 32 mg/L (≈ 69.2 µM) | MIC ([3]; read-out: MIC): 64 mg/L (≈ 138 µM) | MIC (Enterobacter cloacae EB5; read-out: MIC): 64 mg/L (≈ 138 µM) | MIC ([4]; read-out: MIC): 8 mg/L (≈ 17.3 µM) | MIC (Enterococcus faecium X66; read-out: MIC): 16 mg/L (≈ 34.6 µM) | MIC (Escherichia coli EC14; read-out: MIC): 4 mg/L (≈ 8.65 µM) | MIC (Escherichia coli N10; read-out: MIC): 8 mg/L (≈ 17.3 µM) | MIC (Escherichia coli TEM; read-out: MIC): 4 mg/L (≈ 8.65 µM) | MIC [14]: 1 mg/L (≈ 2.16 µM) | MIC ([5]; read-out: MIC): 0.5 mg/L (≈ 1.08 µM) | MIC ([6]; read-out: MIC): 16 mg/L (≈ 34.6 µM) | MIC [15]: 0.25 mg/L (≈ 0.541 µM) | MIC ([7]; read-out: MIC): 4 mg/L (≈ 8.65 µM) | MIC (Morg morg PR15; read-out: MIC): 16 mg/L (≈ 34.6 µM) | MIC (Proteus incon PR33; read-out: MIC): 8 mg/L (≈ 17.3 µM) | MIC (Proteus rett C24): 128 mg/L (≈ 277 µM) | MIC (Salmonella 1335; read-out: MIC): 16 mg/L (≈ 34.6 µM) | MIC (Salmonella X514; read-out: MIC): 4 mg/L (≈ 8.65 µM) | MIC (Serratia SE3): > 128 mg/L | MIC (Serratia X99; read-out: MIC): 64 mg/L (≈ 138 µM) | MIC ([8]; NRRLX1.1, read-out: MIC): 1 mg/L (≈ 2.16 µM) | MIC [9]: 8 mg/L (≈ 17.3 µM) | MIC ([10]; read-out: MIC): 4 mg/L (≈ 8.65 µM) | MIC ([11]; read-out: MIC): 16 mg/L (≈ 34.6 µM) | MIC ([12]; read-out: MIC): 1 mg/L (≈ 2.16 µM) | MIC ([13]; read-out: MIC): 1 mg/L (≈ 2.16 µM) | MIC [16]: 0.125 mg/L (≈ 0.27 µM) | MIC [17]: 0.125 mg/L (≈ 0.27 µM)

N[C@@H](C(=O)N[C@@H]1C(=O)N2C(C(=O)O)=C(C(F)(F)F)CC[C@H]12)c1cccc(F)c1 [Compound 8]
MIC (Citro CF17; read-out: MIC): 16 mg/L (≈ 39.9 µM) | MIC [1, 18]: 16 mg/L (≈ 39.9 µM) | MIC [2, 18]: 8 mg/L (≈ 19.9 µM) | MIC ([3]; read-out: MIC): 32 mg/L (≈ 79.7 µM) | MIC (Enterobacter cloacae EB5; read-out: MIC): 16 mg/L (≈ 39.9 µM) | MIC ([4]; read-out: MIC): 32 mg/L (≈ 79.7 µM) | MIC (Enterococcus faecium X66; read-out: MIC): 64 mg/L (≈ 159 µM) | MIC (Escherichia coli EC14; read-out: MIC): 4 mg/L (≈ 9.97 µM) | MIC (Escherichia coli N10; read-out: MIC): 4 mg/L (≈ 9.97 µM) | MIC (Escherichia coli TEM; read-out: MIC): 2 mg/L (≈ 4.98 µM) | MIC [14]: 2 mg/L (≈ 4.98 µM) | MIC ([5]; read-out: MIC): 2 mg/L (≈ 4.98 µM) | MIC ([6]; read-out: MIC): 16 mg/L (≈ 39.9 µM) | MIC [15]: 2 mg/L (≈ 4.98 µM) | MIC ([7]; read-out: MIC): 2 mg/L (≈ 4.98 µM) | MIC (Morg morg PR15; read-out: MIC): 32 mg/L (≈ 79.7 µM) | MIC (Proteus incon PR33; read-out: MIC): 16 mg/L (≈ 39.9 µM) | MIC (Proteus rett C24; Proteus rett C24, read-out: MIC): 16 mg/L (≈ 39.9 µM) | MIC (Salmonella 1335; read-out: MIC): 4 mg/L (≈ 9.97 µM) | MIC (Salmonella X514; read-out: MIC): 2 mg/L (≈ 4.98 µM) | MIC (Serratia SE3; read-out: MIC): 64 mg/L (≈ 159 µM) | MIC (Serratia X99; read-out: MIC): 32 mg/L (≈ 79.7 µM) | MIC (Shig sonn. N9; read-out: MIC): 2 mg/L (≈ 4.98 µM) | MIC ([8]; NRRLX1.1, read-out: MIC): 2 mg/L (≈ 4.98 µM) | MIC [9]: 32 mg/L (≈ 79.7 µM) | MIC ([10]; read-out: MIC): 16 mg/L (≈ 39.9 µM) | MIC ([11]; read-out: MIC): 64 mg/L (≈ 159 µM) | MIC ([12]; read-out: MIC): 4 mg/L (≈ 9.97 µM) | MIC ([13]; read-out: MIC): 4 mg/L (≈ 9.97 µM) | MIC [16]: 0.25 mg/L (≈ 0.623 µM) | MIC [17]: 0.06 mg/L (≈ 0.15 µM)
